For 20 compounds, IC50 and inhibition results are on record in US12479848B2, “Substituted fused heteroaromatic bicyclic compounds as kinase inhibitors and the use thereof” (IMPACT THERAPEUTICS (SHANGHAI), INC, priority 2019, dated 2025).

The subject of assay [1] is human prostate cancer cell DU145. Kind of assay: MTT proliferation assay, DU145. It is filed as cell-based. To be noted: Homo sapiens, DU-145, 96 h, 4 days, read-out: IC50 (nM), inhibition of proliferation of DU145. The method, then:
The cells were digested by trypsinase and centrifuged at 800 rpm for 5 minutes, the supernatant was discarded, and the residual was resuspended with fresh medium (DMEM medium+10% FBS+non-essential amino acid) and counted. The cells were seeded into 96-well cell culture plate with a density of 2000 cells per well and incubated overnight in a 5% CO2 incubator at 37° C. […] 5 μL of each concentration was added to 120 μL of medium (25 times diluted) and mixed by shaking. The overnight cell plates were taken and the culture medium was removed, 195 μL of fresh medium was added to each well, and 5 μL of diluted medium containing the corresponding concentration of the test compound was added respectively (the final concentrations of compounds are shown in Table 3, the final concentration of DMSO is 1%), and the culture plate was then placed in a 5% CO2 incubator at 37° C. for 4 days. After removing the original solution, 100 μL of fresh serum-free DMEM medium containing MTT (0.5 mg/mL) was added to each well, the culture was continued. […] GraphPad Prism 6.0 was used to analyze the data. The inhibitory activity of compounds on cell proliferation was plotted based on cell viability and the logarithm of compound concentration. Cell viability %=(ODcompound−ODbackground)/(ODDMSO−ODbackground)×100.

Assay [2] deals with human lung cancer cell NCI-H460. The assay is described as follows: MTT proliferation assay, NCI-H460. To be noted: Homo sapiens, NCI-H460, 96 h, 4 days, read-out: IC50 (nM), inhibition of proliferation of NCI-H460. In kind it is cell-based. The method, then:
(§1) The cells were seeded into 96-well cell culture plate with a density of 2000/4000 cells per well and incubated overnight in a 5% CO2 incubator at 37° C. […] 5 L diluent of each concentration was added to 120 μL of medium (25 times diluted) and mixed by shaking. The overnight cell plates were taken and the culture medium was removed, 195 μL of fresh medium was added to each well, and 5 μL of diluted medium containing the corresponding concentration of the test compound was added respectively (the final concentration of DMSO is 1%), and the culture plate was then placed in a 5% CO2 incubator at 37° C. for 4 days. After removing the original solution, 100 μL of fresh serum-free DMEM medium containing MTT (0.5 mg/mL) was added to each well, the culture was continued. […] Cell viability (%)=(ODcompound−ODbackground)/(ODDMSO−ODbackground)×100. GraphPad Prism 6.0 was used to analyze the data. The inhibitory activity of compounds on cell proliferation was plotted based on cell viability and the logarithm of compound concentration.
(Tetrazolium assays rely on reduction of a dye to a coloured formazan, in cell work by metabolically active cells.)

The test system of assay [3] is human colon cancer cell LoVo. The assay is described as follows: MTT proliferation assay, LoVo. In kind it is cell-based. To be noted: Homo sapiens, LoVo, 96 h, 4 days, read-out: IC50 (nM), inhibition of proliferation of LoVo. The method, then: as §1, with “5 μL” for “5 L”, “viability (%)=(ODcompound−ODbackground)/(ODDMSO-ODbackground)×100.” for “viability (%)=(ODcompound−ODbackground)/(ODDMSO−ODbackground)×100.”

Assay [4] has as its target T1, ATR/ATRIP enzyme (Homo sapiens, UniProt Q13535).
T1 construct: purchased Eurofins 14-953
The assay is described as follows: ATR enzyme activity experiment (HTRF). Conditions: for IC50: HTRF, p53 substrate, 30 minutes at room temperature; for inhibition at 0.05 µM: read-out: Inh %, inhibitory effects on ATR kinase activity at 50 nM. In kind it is biochemical. How it is done:
The test compound was diluted to a 4× final concentration with reaction buffer (25 mM HEPES (pH8.0), 10 mM MnCl2, 1% glycerol, 0.01% Brij-35, 5 mM DTT and 0.1% BSA). […] The mixture was centrifuged at 1000 rpm for 1 minute, and reacted at room temperature protected from light for 30 minutes. Then 5 μL of EDTA stop solution (250 mM) was added to stop the reaction. […] Data were analyzed using GraphPad Prism6.0, and fitted using the curve equation: Y=Bottom+(Top−Bottom)/(1+10^((Log IC50−X)*HillSlope)) and IC50 values were calculated.

Each structure is given as a SMILES string.

T1 sequence (Q13535 whole entry): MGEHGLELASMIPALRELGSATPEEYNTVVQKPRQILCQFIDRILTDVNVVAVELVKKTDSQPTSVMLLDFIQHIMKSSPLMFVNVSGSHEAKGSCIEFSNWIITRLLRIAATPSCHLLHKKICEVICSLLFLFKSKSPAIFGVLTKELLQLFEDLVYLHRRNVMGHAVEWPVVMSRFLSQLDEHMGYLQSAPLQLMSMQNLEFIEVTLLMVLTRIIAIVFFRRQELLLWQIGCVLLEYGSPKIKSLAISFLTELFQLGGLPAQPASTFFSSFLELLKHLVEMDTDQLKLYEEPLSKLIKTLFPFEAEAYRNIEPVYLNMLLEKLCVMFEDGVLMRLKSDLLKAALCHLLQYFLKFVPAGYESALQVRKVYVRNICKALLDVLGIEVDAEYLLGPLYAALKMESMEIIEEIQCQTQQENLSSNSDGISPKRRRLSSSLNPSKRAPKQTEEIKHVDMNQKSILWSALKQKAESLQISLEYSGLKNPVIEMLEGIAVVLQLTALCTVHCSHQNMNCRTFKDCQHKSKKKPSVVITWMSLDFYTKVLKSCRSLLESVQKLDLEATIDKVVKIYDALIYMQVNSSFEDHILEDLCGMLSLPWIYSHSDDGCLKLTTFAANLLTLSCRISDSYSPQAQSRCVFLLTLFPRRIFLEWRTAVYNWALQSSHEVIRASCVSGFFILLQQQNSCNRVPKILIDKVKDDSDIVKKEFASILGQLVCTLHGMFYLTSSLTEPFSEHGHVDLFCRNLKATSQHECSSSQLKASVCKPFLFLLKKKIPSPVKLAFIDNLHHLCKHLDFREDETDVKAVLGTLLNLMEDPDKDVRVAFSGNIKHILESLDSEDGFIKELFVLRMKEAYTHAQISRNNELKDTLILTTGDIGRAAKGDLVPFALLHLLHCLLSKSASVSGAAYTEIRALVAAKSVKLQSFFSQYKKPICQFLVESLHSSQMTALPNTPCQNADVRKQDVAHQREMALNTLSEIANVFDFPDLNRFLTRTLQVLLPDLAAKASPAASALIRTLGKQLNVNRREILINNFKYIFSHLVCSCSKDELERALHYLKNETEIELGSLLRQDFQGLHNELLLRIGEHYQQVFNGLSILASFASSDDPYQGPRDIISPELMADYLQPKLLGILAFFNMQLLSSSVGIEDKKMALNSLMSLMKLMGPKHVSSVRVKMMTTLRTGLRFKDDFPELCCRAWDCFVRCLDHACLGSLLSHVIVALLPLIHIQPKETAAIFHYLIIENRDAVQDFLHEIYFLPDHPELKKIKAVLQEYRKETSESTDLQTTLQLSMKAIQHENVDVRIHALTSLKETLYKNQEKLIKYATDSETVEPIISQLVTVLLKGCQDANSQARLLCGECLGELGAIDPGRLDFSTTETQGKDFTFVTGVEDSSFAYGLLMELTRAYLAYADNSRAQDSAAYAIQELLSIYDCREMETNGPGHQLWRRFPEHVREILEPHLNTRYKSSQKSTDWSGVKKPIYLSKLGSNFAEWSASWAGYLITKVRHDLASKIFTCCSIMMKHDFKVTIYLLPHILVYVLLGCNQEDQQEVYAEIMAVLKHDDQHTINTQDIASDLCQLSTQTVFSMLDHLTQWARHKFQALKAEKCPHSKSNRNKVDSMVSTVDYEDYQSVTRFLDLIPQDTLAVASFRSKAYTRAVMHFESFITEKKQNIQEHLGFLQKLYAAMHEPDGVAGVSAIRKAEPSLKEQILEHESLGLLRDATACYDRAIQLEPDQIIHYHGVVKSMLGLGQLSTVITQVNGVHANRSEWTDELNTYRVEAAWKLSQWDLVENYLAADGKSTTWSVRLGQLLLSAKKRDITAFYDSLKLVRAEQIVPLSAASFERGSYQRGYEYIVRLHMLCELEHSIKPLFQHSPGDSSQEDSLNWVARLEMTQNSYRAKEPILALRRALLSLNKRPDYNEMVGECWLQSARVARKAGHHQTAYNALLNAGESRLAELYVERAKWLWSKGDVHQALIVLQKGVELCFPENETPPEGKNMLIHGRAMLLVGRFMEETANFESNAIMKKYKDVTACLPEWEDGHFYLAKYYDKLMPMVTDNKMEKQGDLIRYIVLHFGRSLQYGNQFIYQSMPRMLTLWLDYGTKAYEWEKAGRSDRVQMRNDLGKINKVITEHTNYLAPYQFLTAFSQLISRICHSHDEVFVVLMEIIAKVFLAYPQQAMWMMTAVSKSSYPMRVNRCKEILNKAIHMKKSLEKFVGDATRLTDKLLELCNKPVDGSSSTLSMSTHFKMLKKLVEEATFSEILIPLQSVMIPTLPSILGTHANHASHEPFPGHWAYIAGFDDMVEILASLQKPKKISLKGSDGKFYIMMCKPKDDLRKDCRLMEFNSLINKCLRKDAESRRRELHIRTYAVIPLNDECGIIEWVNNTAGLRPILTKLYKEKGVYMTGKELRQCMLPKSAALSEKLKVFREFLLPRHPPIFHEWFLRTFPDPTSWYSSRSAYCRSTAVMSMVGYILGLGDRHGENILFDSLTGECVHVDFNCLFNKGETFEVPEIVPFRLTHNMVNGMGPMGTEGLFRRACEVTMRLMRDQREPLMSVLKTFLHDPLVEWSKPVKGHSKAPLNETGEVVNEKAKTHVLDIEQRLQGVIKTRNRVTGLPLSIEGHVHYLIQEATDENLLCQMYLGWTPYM
T1 sequence (Q8WXE1 whole entry partner): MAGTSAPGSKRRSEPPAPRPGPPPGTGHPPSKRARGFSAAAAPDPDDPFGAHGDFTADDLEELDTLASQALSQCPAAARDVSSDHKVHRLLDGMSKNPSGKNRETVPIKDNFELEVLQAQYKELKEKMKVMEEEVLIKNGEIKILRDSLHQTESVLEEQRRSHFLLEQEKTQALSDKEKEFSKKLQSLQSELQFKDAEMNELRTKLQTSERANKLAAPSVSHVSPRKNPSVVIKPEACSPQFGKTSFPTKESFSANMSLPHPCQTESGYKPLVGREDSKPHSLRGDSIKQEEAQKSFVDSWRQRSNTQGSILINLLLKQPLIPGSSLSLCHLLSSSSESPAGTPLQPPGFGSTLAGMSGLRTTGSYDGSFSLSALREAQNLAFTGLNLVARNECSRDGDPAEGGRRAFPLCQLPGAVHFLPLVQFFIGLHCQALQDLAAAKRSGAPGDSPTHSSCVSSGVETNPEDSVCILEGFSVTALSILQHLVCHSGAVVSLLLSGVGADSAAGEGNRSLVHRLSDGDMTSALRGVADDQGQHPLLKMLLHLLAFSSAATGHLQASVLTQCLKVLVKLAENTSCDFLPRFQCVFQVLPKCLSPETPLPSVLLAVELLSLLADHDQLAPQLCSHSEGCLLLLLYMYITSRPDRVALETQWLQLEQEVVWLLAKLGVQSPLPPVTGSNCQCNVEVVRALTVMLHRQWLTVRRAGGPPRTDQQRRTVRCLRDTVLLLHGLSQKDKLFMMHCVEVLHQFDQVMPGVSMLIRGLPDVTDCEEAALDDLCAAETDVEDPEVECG

As to `C[C@@H]1COCCN1c1cc(-c2ccccc2F)c2ncc(-c3ccn[nH]3)n2n1` [Example 8, (R)-3-methyl-4-(8-(2-fluorophenyl)-3-(1H-pyrazol-5-yl)imidazo[1,2-b]pyridazin-6-yl)morpholine], the IC50 is 1110 nM in assay [1] and 409 nM in assay [2].
Regarding `CCn1nccc1-c1cc(N2CCOC[C@H]2C)nn2c(-c3ccn[nH]3)cnc12` [Example 3, (R)-3-methyl-4-(8-(1-ethyl-1H-pyrazol-5-yl)-3-(1H-pyrazol-5-yl)imidazo[1,2-b]pyridazin-6-yl)morpholine], the values for the IC50 in assay [1] and in assay [2] were 1100 nM and 1040 nM, respectively.
As for `C[C@@H]1COCCN1c1cc(-c2ccnn2C)n2ncc(-c3ccn[nH]3)c2n1` [Example 16, (R)-3-methyl-4-(7-(1-methyl-1H-pyrazol-5-yl)-3-(1H-pyrazol-5-yl)pyrazolo[1,5-a]pyrimidin-5-yl)morpholine], the IC50 stood at 1370 nM in assay [1] and 527 nM in assay [2].
Turning to `Cc1ccc(-c2cc(N3CCOC[C@H]3C)nn3c(-c4ccn[nH]4)cnc23)cn1` [Example 6, (R)-3-methyl-4-(8-(6-methylpyridin-3-yl)-3-(1H-pyrazol-5-yl)imidazo[1,2-b]pyridazin-6-yl)morpholine], the IC50 in assay [1] was determined as 914 nM; in assay [2], 322 nM.
For `C[C@@H]1COCCN1c1cc(-c2ccnn2C)c2cnc(-c3c[nH]cn3)n2n1` [Example 23, (R)-4-(7-(1H-imidazol-4-yl)-4-(1-methyl-1H-pyrazol-5-yl)imidazo[1,5-b]pyridazin-2-yl)-3-methylmorpholine], the results for the IC50 in assay [3], in assay [2] and in assay [4] were 1530 nM, 1800 nM and more than 1000 nM, respectively.
In the case of `Cc1ccc(-c2cc(N3CCOC[C@H]3C)nn3c(-c4cc(C)n[nH]4)ncc23)cn1` [Example 39, (R)-3-methyl-4-(7-(3-methyl-1H-pyrazol-5-yl)-4-(6-methylpyridin-3-yl)imidazo[1,5-b]pyridazin-2-yl)morpholine], the IC50 was determined as 30.7 nM in assay [3], 26.1 nM in assay [2] and 3 nM in assay [4].
`Cc1cc(S(C)(=O)=O)ncc1-c1cc(N2CCOC[C@H]2C)nn2c(-c3ccn[nH]3)ncc12` [Example 44, (R)-3-methyl-4-(4-(4-methyl-6-(methylsulfonyl)pyridin-3-yl)-7-(1H-pyrazol-5-yl)imidazo[1,5-b]pyridazin-2-yl)morpholine]: the IC50 is 138 nM in assay [3] and 289 nM in assay [2]. Also, in assay [4], the inhibition at 0.05 µM was determined as 58%.
Turning to `C[C@@H]1COCCN1c1cc(N2CCOCC2)c2cnc(-c3ccn[nH]3)n2n1` [Example 46, (R)-3-methyl-4-(4-morpholino-7-(1H-pyrazol-5-yl)imidazo[1,5-b]pyridazin-2-yl)morpholine], the IC50 in assay [3] came out at 72.8 nM; in assay [2], 77.8 nM; in assay [4], 12 nM.
The like results for `C[C@@H]1COCCN1c1cc(-c2ccnn2C)c2cnc(-c3cc[nH]c3)n2n1` [Example 21, (R)-3-methyl-4-(4-(1-methyl-1H-pyrazol-5-yl)-7-(1H-pyrrol-3-yl)imidazo[1,5-b]pyridazin-2-yl)morpholine] were, in that order, 155 nM, 244 nM and 6.78 nM.
Consider `C[C@@H]1COCCN1c1cc(-c2ccccc2F)c2cnc(-c3ccn[nH]3)n2n1` [Example 25, (R)-4-(4-(2-fluorophenyl)-7-(1H-pyrazol-5-yl)imidazo[1,5-b]pyridazin-2-yl)-3-methylmorpholine], for which the IC50 in assay [3] came out at 61.9 nM; in assay [2], 40.4 nM; in assay [4], 7 nM.
In the case of `C[C@@H]1COCCN1c1cc(N2CCOCC2)c2ncc(-c3ccn[nH]3)n2n1` [Example 9, (R)-3-methyl-4-(8-morpholino-3-(1H-pyrazol-5-yl)imidazo[1,2-b]pyridazin-6-yl)morpholine], the values for the IC50 in assay [1] and in assay [2] were 1630 nM and 583 nM, respectively.
As for `C[C@@H]1CN(c2cc(N3CCOC[C@H]3C)nn3c(-c4ccn[nH]4)cnc23)C[C@H](C)O1` [Example 10, (2S,6R)-2,6-dimethyl-4-(6-((R)-3-methylmorpholino)-3-(1H-pyrazol-5-yl)imidazo[1,2-b]pyridazin-8-yl)morpholine], the IC50 in assay [1] came out at 2300 nM; in assay [2] it was 1110 nM.
With `Cc1ccc(-c2cc(N3CCOC[C@H]3C)nn3c(-c4ccn[nH]4)ncc23)cn1` [Example 24, (R)-3-methyl-4-(4-(6-methylpyridin-3-yl)-7-(1H-pyrazol-5-yl)imidazo[1,5-b]pyridazin-2-yl)morpholine], the figures for the IC50 in assay [3], in assay [2] and in assay [4] were 34.4 nM, 27.8 nM and 2 nM, respectively.
As for `C[C@@H]1COCCN1c1cc(-c2ccc(S(C)(=O)=O)cc2)c2ncc(-c3ccn[nH]3)n2n1` [Example 7, (R)-3-methyl-4-(8-(4-(methylsulfonyl)phenyl)-3-(1H-pyrazol-5-yl)imidazo[1,2-b]pyridazin-6-yl)morpholine], the IC50 in assay [1] stood at 1200 nM; in assay [2] it was 864 nM.
With `Cn1nccc1-c1cc(N2CCOCC2)nn2c(-c3ccn[nH]3)ncc12` [Example 11, 4-(4-(1-methyl-1H-pyrazol-5-yl)-7-(1H-pyrazol-5-yl)imidazol[1,5-b]pyridazin-2-yl)morpholine], the IC50 in assay [3] worked out at 168 nM; in assay [2], 159 nM. The inhibition at 0.05 µM in assay [4] came out at 63%.
Turning to `C[C@@H]1COCCN1c1cc(-c2cncn2C)c2ncc(-c3ccn[nH]3)n2n1` [Example 5, (R)-3-methyl-4-(8-(1-methyl-1H-imidazol-5-yl)-3-(1H-pyrazol-5-yl)imidazo[1,2-b]pyridazin-6-yl)morpholine], the IC50 was determined as 557 nM in assay [3], 1610 nM in assay [2] and 58.9 nM in assay [4].
As to `Cc1nc(S(C)(=O)=O)ccc1-c1cc(N2CCOC[C@H]2C)nn2c(-c3ccn[nH]3)ncc12` [Example 48, (R)-3-methyl-4-(4-(2-methyl-6-(methylsulfonyl)pyridin-3-yl)-7-(1H-pyrazol-5-yl)imidazo[1,5-b]pyridazin-2-yl)morpholine], the results for the IC50 in assay [3], in assay [2] and in assay [4] were 133 nM, 156 nM and 11 nM, respectively.
With `Cc1ncncc1-c1cc(N2CCOC[C@H]2C)nn2c(-c3ccn[nH]3)ncc12` [Example 45, (R)-3-methyl-4-(4-(4-methylpyrimidin-5-yl)-7-(1H-pyrazol-5-yl)imidazo[1,5-b]pyridazin-2-yl)morpholine], the IC50 in assay [3] was determined as 84.2 nM; in assay [2], 78.8 nM; in assay [4] it was 5 nM.
The like results for `CC(C)n1nccc1-c1cc(N2CCOC[C@H]2C)nn2c(-c3ccn[nH]3)ncc12` [Example 26, (R)-4-(4-(1-isopropyl-1H-pyrazol-5-yl)-7-(1H-pyrazol-5-yl)imidazo[1,5-b]pyridazin-2-yl)-3-methylmorpholine] were, in that order, 68.2 nM, 55.2 nM and 6 nM.
As to `Cc1ccc(C)n1-c1cc(N2CCOC[C@H]2C)nn2c(-c3ccn[nH]3)ncc12` [Example 36, (R)-4-(4-(2,5-dimethyl-1H-pyrrol-1-yl)-7-(1H-pyrazol-5-yl)imidazo[1,5-b]pyridazin-2-yl)-3-methylmorpholine], the IC50 amounted to 114 nM in assay [3] and 116 nM in assay [2]. For the same compound, the inhibition at 0.05 µM in assay [4] was 63%.
